This passage reports IC50 and Ki results from ChEMBL document CHEMBL1909046, “DrugMatrix in vitro pharmacology data”.

Test [1] addresses T1, C-C chemokine receptor type 4 (Homo sapiens, UniProt P51679).
T1 sequence (P51679 whole entry): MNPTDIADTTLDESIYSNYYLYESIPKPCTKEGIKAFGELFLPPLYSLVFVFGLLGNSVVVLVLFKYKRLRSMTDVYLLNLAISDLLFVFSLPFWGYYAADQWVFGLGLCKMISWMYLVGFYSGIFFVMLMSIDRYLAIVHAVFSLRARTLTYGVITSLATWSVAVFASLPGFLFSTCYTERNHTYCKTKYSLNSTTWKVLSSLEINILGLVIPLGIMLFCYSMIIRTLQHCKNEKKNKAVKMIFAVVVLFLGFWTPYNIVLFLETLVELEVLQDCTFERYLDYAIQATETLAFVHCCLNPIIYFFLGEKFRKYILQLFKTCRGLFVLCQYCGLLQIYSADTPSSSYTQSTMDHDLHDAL
Type of test: cell membranes, Membrane. As to conditions: chem-1.

Test [2] has as its target T2, 3-hydroxy-3-methylglutaryl-coenzyme A reductase (Homo sapiens, UniProt P04035).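 Note: enzyme inhibition assay of HMG-CoA reductase using radiolabeled [14C]HMG-CoA as substrate.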
T2 sequence (P04035 whole entry): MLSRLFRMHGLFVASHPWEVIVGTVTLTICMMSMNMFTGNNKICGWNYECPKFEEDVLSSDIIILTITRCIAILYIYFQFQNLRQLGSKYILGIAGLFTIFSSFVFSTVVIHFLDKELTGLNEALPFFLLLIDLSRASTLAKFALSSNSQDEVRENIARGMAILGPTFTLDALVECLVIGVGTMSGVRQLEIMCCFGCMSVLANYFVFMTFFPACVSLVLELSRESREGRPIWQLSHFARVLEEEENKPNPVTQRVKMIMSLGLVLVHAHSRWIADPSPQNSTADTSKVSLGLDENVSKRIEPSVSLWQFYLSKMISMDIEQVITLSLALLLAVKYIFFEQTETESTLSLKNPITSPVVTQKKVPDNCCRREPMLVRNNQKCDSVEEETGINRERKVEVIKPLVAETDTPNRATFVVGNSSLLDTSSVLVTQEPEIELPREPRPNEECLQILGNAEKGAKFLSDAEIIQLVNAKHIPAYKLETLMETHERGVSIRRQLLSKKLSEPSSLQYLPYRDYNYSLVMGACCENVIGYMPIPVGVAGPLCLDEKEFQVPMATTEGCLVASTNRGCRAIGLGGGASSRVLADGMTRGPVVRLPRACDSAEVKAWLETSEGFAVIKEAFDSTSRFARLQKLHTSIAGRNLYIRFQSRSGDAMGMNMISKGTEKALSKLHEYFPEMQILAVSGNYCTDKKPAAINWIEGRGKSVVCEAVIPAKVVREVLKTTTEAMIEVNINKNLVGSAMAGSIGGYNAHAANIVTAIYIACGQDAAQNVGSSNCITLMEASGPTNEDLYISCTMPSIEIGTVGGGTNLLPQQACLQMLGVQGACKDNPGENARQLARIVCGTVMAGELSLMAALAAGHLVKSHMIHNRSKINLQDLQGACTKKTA
Further details: species or system Escherichia coli.

Test [3] deals with 5-hydroxytryptamine receptor 6 (Homo sapiens, UniProt P50406). In kind it is cell membranes, HeLa, Membrane.
The target in a further test is T3, Androgen receptor (Rattus norvegicus, UniProt P15207).
T3 sequence (P15207 whole entry): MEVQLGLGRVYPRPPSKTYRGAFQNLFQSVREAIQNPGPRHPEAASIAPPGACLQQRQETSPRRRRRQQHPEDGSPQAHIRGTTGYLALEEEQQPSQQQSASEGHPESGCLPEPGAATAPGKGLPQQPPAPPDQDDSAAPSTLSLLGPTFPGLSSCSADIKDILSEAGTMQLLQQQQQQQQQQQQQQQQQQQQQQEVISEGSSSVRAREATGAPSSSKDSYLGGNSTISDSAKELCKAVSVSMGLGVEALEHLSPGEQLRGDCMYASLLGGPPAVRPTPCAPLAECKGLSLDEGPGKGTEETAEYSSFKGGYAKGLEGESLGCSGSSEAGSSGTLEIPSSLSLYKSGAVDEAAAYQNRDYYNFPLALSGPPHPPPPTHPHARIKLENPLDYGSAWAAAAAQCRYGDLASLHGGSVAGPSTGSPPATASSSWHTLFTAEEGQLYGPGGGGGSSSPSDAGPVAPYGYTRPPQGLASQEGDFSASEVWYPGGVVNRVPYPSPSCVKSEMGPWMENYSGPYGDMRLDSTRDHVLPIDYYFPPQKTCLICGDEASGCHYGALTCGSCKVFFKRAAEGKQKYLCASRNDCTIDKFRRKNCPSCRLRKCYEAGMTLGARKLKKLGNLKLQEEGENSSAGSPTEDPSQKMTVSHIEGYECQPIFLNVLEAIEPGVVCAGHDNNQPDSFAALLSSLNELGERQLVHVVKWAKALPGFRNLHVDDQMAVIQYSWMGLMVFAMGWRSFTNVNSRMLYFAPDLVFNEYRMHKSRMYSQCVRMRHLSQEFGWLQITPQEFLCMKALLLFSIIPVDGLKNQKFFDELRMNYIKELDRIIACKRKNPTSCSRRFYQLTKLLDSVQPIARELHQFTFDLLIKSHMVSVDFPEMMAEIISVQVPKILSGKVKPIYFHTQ

Test [4] has as its target T4, C-X-C chemokine receptor type 2 (Homo sapiens, UniProt P25025).
T4 sequence (P25025 whole entry): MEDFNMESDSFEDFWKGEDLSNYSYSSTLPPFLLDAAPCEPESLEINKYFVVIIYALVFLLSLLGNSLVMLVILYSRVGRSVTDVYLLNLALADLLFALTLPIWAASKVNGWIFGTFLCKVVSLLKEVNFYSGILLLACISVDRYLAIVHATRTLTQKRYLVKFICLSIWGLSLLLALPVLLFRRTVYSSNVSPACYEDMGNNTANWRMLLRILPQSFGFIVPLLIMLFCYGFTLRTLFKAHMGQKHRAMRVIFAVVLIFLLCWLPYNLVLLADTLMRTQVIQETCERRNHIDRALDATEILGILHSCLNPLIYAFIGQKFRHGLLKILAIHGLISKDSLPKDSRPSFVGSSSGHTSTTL
In kind it is cell membranes, Membrane. As to conditions: cho-k1.

Another test has as its target T5, Neutrophil elastase (Homo sapiens, UniProt P08246).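 Note: inhibition of neutrophil elastase enzyme activity, measured with a p-nitroanilide-linked peptide substrate.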
T5 sequence (P08246 whole entry): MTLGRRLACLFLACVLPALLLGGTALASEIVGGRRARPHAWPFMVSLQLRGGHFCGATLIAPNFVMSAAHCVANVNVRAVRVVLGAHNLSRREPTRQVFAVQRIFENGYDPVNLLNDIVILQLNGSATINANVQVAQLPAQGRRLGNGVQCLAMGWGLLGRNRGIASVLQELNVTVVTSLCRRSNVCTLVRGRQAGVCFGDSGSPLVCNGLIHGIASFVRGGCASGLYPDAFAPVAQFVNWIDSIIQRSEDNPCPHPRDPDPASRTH
In kind it is tissue-based.

In test [5] the target is C-C chemokine receptor type 5 (Homo sapiens, UniProt P51681). In kind it is cell membranes, Membrane. The conditions noted are these: hek293.

What is called IC50 is the midpoint of a concentration-inhibition curve. One may read the Ki as the dissociation constant of the complex between target and ligand, obtained from inhibition or displacement.
Note: in other assays of this panel Not Active means under 50% inhibition at 10 µM.

Sequence of 5-hydroxytryptamine receptor 6 (P50406 whole entry): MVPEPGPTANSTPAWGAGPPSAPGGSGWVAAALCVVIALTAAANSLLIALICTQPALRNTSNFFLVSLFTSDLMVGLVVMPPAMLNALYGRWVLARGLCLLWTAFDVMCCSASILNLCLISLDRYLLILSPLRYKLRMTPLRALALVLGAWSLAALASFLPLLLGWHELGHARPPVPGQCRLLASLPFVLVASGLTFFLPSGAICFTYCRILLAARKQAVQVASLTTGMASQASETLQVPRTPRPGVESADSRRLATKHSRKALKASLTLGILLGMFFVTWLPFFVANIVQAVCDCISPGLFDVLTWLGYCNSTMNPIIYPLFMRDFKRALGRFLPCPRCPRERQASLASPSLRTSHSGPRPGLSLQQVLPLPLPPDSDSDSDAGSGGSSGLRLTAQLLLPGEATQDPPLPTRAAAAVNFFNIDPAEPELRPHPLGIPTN
Sequence of C-C chemokine receptor type 5 (P51681 whole entry): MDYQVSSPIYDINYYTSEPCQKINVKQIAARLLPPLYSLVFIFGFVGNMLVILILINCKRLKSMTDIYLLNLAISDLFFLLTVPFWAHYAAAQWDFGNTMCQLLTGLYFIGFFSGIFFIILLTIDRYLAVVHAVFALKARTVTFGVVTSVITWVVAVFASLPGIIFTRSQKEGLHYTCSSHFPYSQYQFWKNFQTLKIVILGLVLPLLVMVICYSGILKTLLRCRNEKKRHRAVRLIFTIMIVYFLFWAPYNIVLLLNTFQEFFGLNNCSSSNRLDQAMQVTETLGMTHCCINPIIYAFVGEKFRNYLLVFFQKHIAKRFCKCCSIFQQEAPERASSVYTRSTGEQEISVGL

As to `O=C(c1ccccc1C(F)(F)F)N1CCC(Cc2ccccc2)CC1`, the IC50 result (in test [1]; in test [2]; in test [3] (hela); on Androgen receptor; in test [4]; against Neutrophil elastase) was “Not Active” in each case. Besides, the IC50 entry in test [5] is “Not Active”.
Take `Nc1ccc2c3c(cccc13)C(=O)NC2=O`: the IC50 entry (in test [1]; in test [2]; in test [3] (hela); on Androgen receptor; in test [4]; against Neutrophil elastase) was “Not Active” in each case. Moreover, the IC50 entry in test [5] was “Not Active”.
Consider `O=c1cnn([C@@H]2O[C@H](CO)[C@@H](O)[C@H]2O)c(=O)[nH]1` [6-AZAURIDINE], for which the IC50 result (in test [1]; in test [2]; in test [3] (hela); at Androgen receptor; in test [4]; against Neutrophil elastase) was “Not Active” each time. Also, the IC50 result in test [5] was “Not Active”.
Consider `CCC1(CCC(C)C)C(=O)NC(=O)NC1=O` [AMOBARBITAL], for which the IC50 entry (in test [1]; in test [2]; in test [3] (hela); against Androgen receptor; in test [4]; against Neutrophil elastase) was “Not Active” throughout. In test [5], the IC50 result is recorded as “Not Active”.
Take `CC(C(=O)O)c1ccc2oc(-c3ccc(Cl)cc3)nc2c1` (configuration not stated) [BENOXAPROFEN]: the IC50 result (in test [1]; in test [2]; in test [3] (hela); on Androgen receptor; in test [4]; against Neutrophil elastase) was “Not Active” throughout. Also, the IC50 result in test [5] was “Not Active”.
With `COC(=O)Nc1nc2ccc(C(=O)c3cccs3)cc2[nH]1` [NOCODAZOLE], the IC50 entry (in test [1]; in test [2]; in test [3] (hela); in test [4]; against Neutrophil elastase; in test [5]) was “Not Active” each time.
For the compound `C#CC1(O)CC[C@H]2[C@@H]3CCC4=CC(=O)CC[C@@H]4[C@H]3CC[C@@]21CC` (some centres not stated) [NORGESTREL], the IC50 result (in test [1]; in test [2]; in test [3] (hela); in test [4]; at Neutrophil elastase; in test [5]) was “Not Active” in each case.
For the compound `COC(=O)Nc1nc2ccc([S+]([O-])c3ccccc3)cc2[nH]1` (configuration not stated) [OXFENDAZOLE], the IC50 result (in test [1]; in test [2]; in test [3] (hela); in test [4]; against Neutrophil elastase; in test [5]) was “Not Active” throughout.
Turning to `CCn1cc(C(=O)O)c(=O)c2cnc(N3CCCC3)nc21` [PIROMIDIC ACID], the IC50 entry (in test [1]; in test [2]; in test [3] (hela); in test [4]; at Neutrophil elastase; in test [5]) was “Not Active” each time.
`C[n+]1ccccc1/C=N/O.[Cl-]` [PRALIDOXIME CHLORIDE]: the IC50 result (in test [1]; in test [2]; in test [3] (hela); in test [4]; on Neutrophil elastase; in test [5]) was “Not Active” in each case.
For `COc1cc2nc(N3CCN(C(=O)c4ccco4)CC3)nc(N)c2cc1OC` [PRAZOSIN], the IC50 result (in test [1]; in test [2]; in test [3] (hela); in test [4]; at Neutrophil elastase; in test [5]) was “Not Active” throughout.
As to `C[C@]12C=CC(=O)C=C1CC[C@@H]1[C@@H]2[C@@H](O)C[C@@]2(C)[C@H]1CC[C@]2(O)C(=O)CO` [PREDNISOLONE], the IC50 entry (in test [1]; in test [2]; in test [3] (hela); in test [4]; at Neutrophil elastase; in test [5]) was “Not Active” each time.
As for `CC(=O)[C@H]1[C@H](C#N)C[C@H]2[C@@H]3CC=C4C[C@@H](O)CC[C@]4(C)[C@H]3CC[C@@]21C` [PREGNENOLONE CARBONITRILE], the IC50 entry (in test [1]; in test [2]; in test [3] (hela); in test [4]; at Neutrophil elastase; in test [5]) was “Not Active” in each case.
On to `CCCNCC(O)COc1ccccc1C(=O)CCc1ccccc1` (configuration not stated) [PROPAFENONE], for which the IC50 entry is “Not Active” in test [1]; “Not Active” in test [2]; 1860 nM in test [3] (read-out: IC50); “Not Active” in test [4]; “Not Active” against Neutrophil elastase; “Not Active” in test [5]. Further, the Ki in test [3] (read-out: Ki) stood at 865 nM.
As for `CCCOc1ccc(C(=O)OCCN(CC)CC)cc1N` [PROPARACAINE], the IC50 entry (in test [1]; in test [2]; in test [3] (hela); in test [4]; against Neutrophil elastase; in test [5]) was “Not Active” throughout.
Regarding `Oc1cccc(O)c1O` [PYROGALLOL], the IC50 result (in test [1]; in test [2]; in test [3] (hela); in test [4]; against Neutrophil elastase; in test [5]) was “Not Active” throughout.
